The numbers were not newly measured in patent publication US20160008334A1, “Preparations for the Treatment of Sleep-Related Respiratory Disorders” (priority 2013, published 2016), which cites them from elsewhere.

Each structure is given as a SMILES string.

For this data set the following is noted: compared with the barbiturate phenobarbital; one study (drugbank.ca DB00366).

As to `CN(C)CCOC(C)(c1ccccc1)c1ccccn1` (stereo not shown) [doxylamine succinate], the “effectiveness for use as a sedative” value is reported as “more effective than the barbiturate phenobarbital”.
